Experimental data reported in patent US8168651B2, “Protein kinase modulators” (Cylene Pharmaceuticals, Inc., priority 2008, dated 2012).

Assays:
[1] = target: recombinant human PIM1 (Homo sapiens (Human), UniProt P11309); assay: PIM-1 kinase activity in cell-free in vitro assay; type: biochemical; conditions: 500 nM compound, cell-free assay; read-out: PIM-1: % inh 500 nM
[2] = test system: Jurkat; assay: Cell proliferation modulatory activity, Jurkat; type: cell-based; conditions: Homo sapiens
[3] = test system: HCT-116 human colorectal carcinoma cells; assay: Cell-proliferation assay using Alamar Blue dye; type: cell-based; conditions: Homo sapiens, HCT-116, HCT-116, second HCT-116 column (c8); read-out: HCT-116 (uM), cell proliferation modulatory activity;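 also: cells exposed to compound for about 4 days, then Alamar Blue added and dye fluorescence read after about 4 h, compared with medium-only control wells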

Sequence of recombinant human PIM1 (P11309 whole entry): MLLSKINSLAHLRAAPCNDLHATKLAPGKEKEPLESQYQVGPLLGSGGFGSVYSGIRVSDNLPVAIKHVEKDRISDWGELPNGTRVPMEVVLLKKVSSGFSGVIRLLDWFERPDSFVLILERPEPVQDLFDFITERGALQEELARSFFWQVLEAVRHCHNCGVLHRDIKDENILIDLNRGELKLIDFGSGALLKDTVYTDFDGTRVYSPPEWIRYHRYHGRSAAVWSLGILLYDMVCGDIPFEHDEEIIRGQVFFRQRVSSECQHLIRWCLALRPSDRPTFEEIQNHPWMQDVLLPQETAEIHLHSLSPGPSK

Compound | inhibition at 0.5 µM [1] | IC50 [2] | IC50 [3]
CCCNc1ncc2c(n1)c(Nc1ccccc1)nc1cc(C(=O)O)ccc12 | 29.9% | 4.53 µM | 
COCCNc1ncc2c(n1)c(Nc1ccccc1)nc1cc(C(=O)O)ccc12 | 19.8% | 5.8 µM | 
O=C(O)c1ccc2c(c1)nc(Nc1ccccc1)c1nc(NCCCO)ncc12 | 49.3% | 7.9 µM | 
C#Cc1cccc(Nc2nc3cc(C(=O)O)ccc3c3cnc(NCCC)nc23)c1 | 45.6% | 2.67 µM | 
C#Cc1cccc(Nc2nc3cc(C(=O)O)ccc3c3cnc(NCCCN4CCOCC4)nc23)c1 | 41.6% | 3.69 µM | 
O=C(O)c1ccc2c(c1)nc(Nc1cccc(C(F)(F)F)c1)c1ncncc12 |  | 2.53 µM | 
CN(C)c1ncc2c(n1)c(Nc1cccc(Cl)c1)nc1cc(C(=O)O)ccc12 |  | 5.83 µM | > 10 µM
Nc1ncc2c(n1)c(Nc1cccc(Cl)c1)nc1cc(C(=O)O)ccc12 | 85.7% | 1.14 µM | 
CCNc1ncc2c(n1)c(Nc1cccc(Cl)c1)nc1cc(C(=O)O)ccc12 |  | 3.06 µM | 
Nc1ncc2c(n1)c(Nc1ccc(F)c(Cl)c1)nc1cc(C(=O)O)ccc12 | 38.8% | 4.34 µM | 
COCCNc1ncc2c(n1)c(Nc1ccc(F)c(Cl)c1)nc1cc(C(=O)O)ccc12 | 22.9% | 0.413 µM | 
C#Cc1cccc(Nc2nc3cc(C(=O)O)ccc3c3cnc(NCCCOCC)nc23)c1 | 2.19% | 0.389 µM | 
C#Cc1cccc(Nc2nc3cc(C(=O)O)ccc3c3cnc(NCCCOC(C)C)nc23)c1 | -1.78% | 2.37 µM | 
COC(=O)c1ccc2c(c1)nc(Nc1cccc(Cl)c1)c1nc(NCCC(N)=O)ncc12 | -12.6% | 4.41 µM | 
NC(=O)CCNc1ncc2c(n1)c(Nc1cccc(Cl)c1)nc1cc(C(=O)O)ccc12 |  | 37.7 µM | 
O=C(O)c1ccc2c(c1)nc(Nc1cc(F)cc(F)c1)c1nc(NC3CC3)ncc12 | 48.9% | 6.02 µM | 
COc1cccc(Nc2nc3cc(C(=O)O)ccc3c3cnc(NC4CC4)nc23)c1 | 36.5% | 3.44 µM | 
CN(C)CCNc1ncc2c(n1)c(Nc1ccc(F)c(Cl)c1)nc1cc(C(=O)O)ccc12 | 53% | 1.25 µM | 
O=C(O)c1ccc2c(c1)nc(Nc1ccc(F)c(Cl)c1)c1nc(NCc3ccccn3)ncc12 | 59.1% | 2.59 µM | 
COC(CNc1ncc2c(n1)c(Nc1ccc(F)c(Cl)c1)nc1cc(C(=O)O)ccc12)OC | 57.6% | 1.12 µM | 
O=C(NC1CC1)c1ccc2c(c1)nc(Nc1cccc(C(F)(F)F)c1)c1nc(NC3CC3)ncc12 | 16.7% | 3.92 µM | 
CNC(=O)c1ccc2c(c1)nc(Nc1cccc(C(F)(F)F)c1)c1nc(NC3CC3)ncc12 | 16.2% | 3.65 µM | 
O=C(O)c1ccc2c(c1)nc(Nc1ccc(F)c(Cl)c1)c1nc(NCc3cccnc3)ncc12 | 19.6% | 1.5 µM | 
O=C(O)c1ccc2c(c1)nc(Nc1ccccc1)c1nc(Nc3ccccc3)ncc12 | 13% | 8.98 µM | 
CCOC(=O)CCNC(=O)c1ccc2c(c1)nc(Nc1cccc(C(F)(F)F)c1)c1nc(NC3CC3)ncc12 | 10.5% | 7.24 µM | 
CN(C)c1ncc2c(n1)c(NC1CC1)nc1cc(C(=O)O)ccc12 | -38.5% | > 50 µM | > 10 µM
C#Cc1cccc(Nc2nc3cc(C(N)=O)ccc3c3cncnc23)c1 | -38.1% | 31.5 µM | > 10 µM
CC(=O)Nc1ccc2c(c1)nc(Nc1cccc(C(F)(F)F)c1)c1nc(NC3CC3)ncc12 | -39.8% | 1.22 µM | > 10 µM
O=C(O)c1ccc2c(c1)nc(NC1CC1)c1nc(NCCO)ncc12 | 22.4% | > 50 µM | 
